Patent US20110190503A1, “Thiazolopyridin-2-yloxy-phenyl and thiazolopyrazin-2-yloxy-phenyl amines as modulators of leukotriene A4 hydrolase” (Janssen Pharmaceutical NV, priority 2008, published 2011)
Read-outs that look alike come from different tables or passages of the source.

How the values were obtained:
neutrophil influx = test: Murine arachidonic acid-induced inflammation model: neutrophil influx in ear, myeloperoxidase activity (% Inh. MPO); format: in vivo; details: Mus musculus, female Balb/c mice, 30 mg/kg oral gavage, ear biopsy 3 h after topical arachidonic acid, number of determinations in parentheses
How it was run: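 Female Balb/c mice were dosed orally at 30 mg/kg (20% cyclodextran/H2O). Ear biopsies at 3 h; MPO activity by TMB, A405, acetone ear subtracted; inhibition versus vehicle-dosed mice.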

[1] = test system: LTB4 production by calcium ionophore-stimulated human blood; test: LTB4 production by calcium ionophore-stimulated human blood for LTA4H inhibitor activity; format: cell-based
Method: Assay 3: LTB4 Production by Calcium Ionophore-Stimulated Human Blood for LTA4H Inhibitor Activity
Human blood was collected from healthy donors in heparin-containing syringes. The blood was diluted 1:1 with RPMI-1640 medium, and 200-μL aliquots of the diluted blood were added to wells of a 96-well microtiter plate. LTA4H inhibitor test compounds were prepared at different concentrations in RPMI-1640 medium containing 1% DMSO, and 20 μL of each test solution was added to a well containing diluted whole blood (final DMSO concentration of 0.1%). After the microtiter plate contents were incubated for 15 min at 37° C. in a humidified incubator, calcium ionophore A23187 (Sigma Chemical Co., St. Louis, Mo.) was added to each sample well (final concentration=7 μg/mL). The incubation was continued under the same conditions for an additional 30 min to allow LTB4 formation. The reaction was terminated by centrifugation (833×g, 10 min at 4° C.), and supernatants were analyzed for LTB4 by a commercially available enzyme-linked immunoassay (Cayman Chemical Co.) according to the manufacturer's instructions. Positive controls, under essentially identical conditions but without addition of an inhibitor compound, and negative unstimulated controls, containing all assay components except calcium ionophore, were routinely run in each experiment. IC50 values for compounds tested in this assay were determined by nonlinear regression of the activity data at different compound concentrations using Graphpad Prism 4.0, one site binding competition, and are presented in Table 3. The number of determinations made is indicated in parentheses following each value.

[2] = test system: LTB4 production by calcium ionophore-stimulated murine blood; test: LTB4 production by calcium ionophore-stimulated murine blood for LTA4H inhibitor activity; format: cell-based, CD-1 mice; details: Mus musculus
How it was run: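 LTB4 quantified by EIA in supernatants after murine (CD-1) heparinized whole blood was exposed to compound for 15 min, then to 7 μg/mL (final) A23187 for 30 min, all at 37° C. Reported values: single runs or means; three or more runs include SD.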

[3] = test system: ex vivo stimulated LTB4 production; test: Murine arachidonic acid-induced inflammation model: ex vivo stimulated LTB4 production (% Inh. LTB4); details: Mus musculus; female Balb/c mice, 30 mg/kg oral gavage; blood taken 3 h after arachidonic acid, ex vivo A23187 stimulation; number of determinations in parentheses
How it was run: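 Female Balb/c mice got 30 mg/kg orally in 20% cyclodextran/H2O. Heparinized blood in RPMI-1640 was stimulated with A23187 ([…]) for 30 min at 37 °C. LTB4 was measured by ELISA as % inhibition versus vehicle-dosed mice.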

[4] = human blood diluted 1:1, calcium ionophore A23187, LTB4 by immunoassay, n in parentheses, read-out: IC50
[5] = murine blood diluted 1 in 15, calcium ionophore A23187, LTB4 by immunoassay, read-out: IC50

Row | IC50 [1, 4] | IC50 [2, 5] | Compound | inhibition in vivo at 30 mg/kg (neutrophil influx) | inhibition at 30 mg/kg [3] | IC50 ([1]; Homo sapiens) | IC50 [2]
1 | 88 nM | 120 ± 42 nM | CC(=O)N1C[C@@H]2C[C@H]1CN2Cc1ccc(Oc2nc3ncc(C)cc3s2)cc1 [Example 121, 2-(4-{[(1S,4S)-5-Acetyl-2,5-diazabicyclo[2.2.1]hept-2-yl]methyl}phenoxy)-6-methyl[1,3]thiazolo[4,5-b]pyridine] | 83% | 83% |  | 
2 | 154 nM | 140 nM | NC(=O)N1C[C@H]2C[C@@H]1CN2Cc1ccc(Oc2nc3ncccc3s2)cc1 [Example 266, (1R,4R)-5-[4-([1,3]Thiazolo[4,5-b]pyridin-2-yloxy)benzyl]-2,5-diazabicyclo[2.2.1]heptane-2-carboxamide] | 85.8% | 78.6% |  | 
3 | 134 nM | 55 nM | O=C1CCCN1C1CCN(Cc2ccc(Oc3nc4ncccc4s3)cc2)CC1 [Example 83, 1-{1-[4-([1,3]Thiazolo[4,5-b]pyridin-2-yloxy)benzyl]piperidin-4-yl}pyrrolidin-2-one] | 88.2% | 81% |  | 
4 | 8 nM | 22 nM | O=C1CCCN1C1CCN(CCOc2ccc(Oc3nc4ncccc4s3)cc2)CC1 [Example 32, 1-(1-{2-[4-([1,3]Thiazolo[4,5-b]pyridin-2-yloxy)phenoxy]ethyl}piperidin-4-yl)pyrrolidin-2-one] | 76% | 89% |  | 
5 | 256 nM | 170 nM | NC(=O)N1C[C@@H]2C[C@H]1CN2CCc1ccc(Oc2nc3ncccc3s2)cc1 [Example 45, (1S,4S)-5-{2-[4-([1,3]Thiazolo[4,5-b]pyridin-2-yloxy)phenyl]ethyl}-2,5-diazabicyclo[2.2.1]heptane-2-carboxamide] | 71.1% | 86.8% |  | 
6 | 53 nM | 31 nM | NC(=O)C1CCN(CCOc2ccc(Oc3nc4ncccc4s3)cc2)CC1 [Example 31, 1-{2-[4-([1,3]Thiazolo[4,5-b]pyridin-2-yloxy)phenoxy]ethyl}piperidine-4-carboxamide] | 70.5% | 79.8% |  | 
7 | 72 nM | 23 nM | CC(=O)N1C[C@H]2C[C@@H]1CN2Cc1ccc(Oc2nc3ncccc3s2)cc1 [Example 265, 2-(4-{[(1R,4R)-5-Acetyl-2,5-diazabicyclo[2.2.1]hept-2-yl]methyl}phenoxy)[1,3]thiazolo[4,5-b]pyridine] | 90.8% | 84.4% |  | 
8 | 79 nM | 18 ± 13 nM | CC(=O)N1C[C@@H]2C[C@H]1CN2CCOc1ccc(Oc2nc3ncccc3s2)cc1 [Example 14, 2-(4-{2-[(1S,4S)-5-Acetyl-2,5-diazabicyclo[2.2.1]hept-2-yl]ethoxy}phenoxy)[1,3]thiazolo[4,5-b]pyridine] | 72.3% | 84% |  | 

Further lines, the compound ahead of its results:

Row | Compound | IC50 [1, 4] | IC50 [2, 5] | inhibition in vivo at 30 mg/kg (neutrophil influx) | inhibition at 30 mg/kg [3] | IC50 ([1]; Homo sapiens) | IC50 [2]
9 | NC(=O)N1C[C@@H]2C[C@H]1CN2Cc1ccc(Oc2nc3ncccc3s2)cc1 [Example 106, (1S,4S)-5-[4-([1,3]Thiazolo[4,5-b]pyridin-2-yloxy)benzyl]-2,5-diazabicyclo[2.2.1]heptane-2-carboxamide] | 141 nM | 79 nM | 95.2% | 90.5% |  | 
10 | CC(=O)N[C@@H]1C[C@H]2CC[C@@H](C1)N2Cc1ccc(Oc2nc3ncccc3s2)cc1 [Example 109, meso-N-{(3-exo)-8-[4-([1,3]Thiazolo[4,5-b]pyridin-2-yloxy)benzyl]-8-azabicyclo[3.2.1]oct-3-yl}acetamide] |  |  | 71.5% | 84.8% | 87 nM | 60 nM
11 | CC(=O)N1C[C@@H]2C[C@H]1CN2CCc1ccc(Oc2nc3ncccc3s2)cc1 [Example 75, 2-(4-{2-[(1S,4S)-5-Acetyl-2,5-diazabicyclo[2.2.1]hept-2-yl]ethyl}phenoxy)[1,3]thiazolo[4,5-b]pyridine] | 299 nM | 44 nM | 68.1% | 89.5% |  | 
12 | CC(=O)N1C[C@H]2C[C@@H]1CN2CCOc1ccc(Oc2nc3ncccc3s2)cc1 [Example 267, 2-(4-{2-[(1R,4R)-5-Acetyl-2,5-diazabicyclo[2.2.1]hept-2-yl]ethoxy}phenoxy)[1,3]thiazolo[4,5-b]pyridine] | 57 nM | 110 nM | 90.6% | 83.4% |  | 
13 | CC(=O)N1C[C@H]2CC[C@@H](C1)N2CCc1ccc(Oc2nc3ncccc3s2)cc1 [Example 55, meso-2-(4-{2-[3-Acetyl-3,8-diazabicyclo[3.2.1]oct-8-yl]ethyl}phenoxy)[1,3]thiazolo[4,5-b]pyridine] | 99 nM | 55 nM | 73.5% | 83.7% |  | 
14 | CC(=O)N[C@H]1C[C@H]2CC[C@@H](C1)N2Cc1ccc(Oc2nc3ncccc3s2)cc1 [Example 116, meso-N-{(3-endo)-8-[4-([1,3]Thiazolo[4,5-b]pyridin-2-yloxy)benzyl]-8-azabicyclo[3.2.1]oct-3-yl}acetamide] |  |  | 70% | 81% | 19 nM | 22 ± 17 nM
15 | CC(=O)N1CC2CN(CCc3ccc(Oc4nc5ncccc5s4)cc3)CC2C1 (stereo not drawn) [Example 73, 2-{4-[2-(5-Acetylhexahydropyrrolo[3,4-c]pyrrol-2(1H)-yl)ethyl]phenoxy}[1,3]thiazolo[4,5-b]pyridine] | 227 nM | 50 nM | 79.4% | 85.7% |  | 
